The values below come from US20220235032A1 (GENFLEET THERAPEUTICS (SHANGHAI) INC., priority 2019, published 2022).

The term IC50 denotes the point on the concentration scale where inhibition reaches its midpoint.

One experiment addresses T1, RIPK1 enzyme (Homo sapiens, UniProt Q13546).
T1 construct: purchased Eurofins 16-022
T1 sequence (Q13546 1-671): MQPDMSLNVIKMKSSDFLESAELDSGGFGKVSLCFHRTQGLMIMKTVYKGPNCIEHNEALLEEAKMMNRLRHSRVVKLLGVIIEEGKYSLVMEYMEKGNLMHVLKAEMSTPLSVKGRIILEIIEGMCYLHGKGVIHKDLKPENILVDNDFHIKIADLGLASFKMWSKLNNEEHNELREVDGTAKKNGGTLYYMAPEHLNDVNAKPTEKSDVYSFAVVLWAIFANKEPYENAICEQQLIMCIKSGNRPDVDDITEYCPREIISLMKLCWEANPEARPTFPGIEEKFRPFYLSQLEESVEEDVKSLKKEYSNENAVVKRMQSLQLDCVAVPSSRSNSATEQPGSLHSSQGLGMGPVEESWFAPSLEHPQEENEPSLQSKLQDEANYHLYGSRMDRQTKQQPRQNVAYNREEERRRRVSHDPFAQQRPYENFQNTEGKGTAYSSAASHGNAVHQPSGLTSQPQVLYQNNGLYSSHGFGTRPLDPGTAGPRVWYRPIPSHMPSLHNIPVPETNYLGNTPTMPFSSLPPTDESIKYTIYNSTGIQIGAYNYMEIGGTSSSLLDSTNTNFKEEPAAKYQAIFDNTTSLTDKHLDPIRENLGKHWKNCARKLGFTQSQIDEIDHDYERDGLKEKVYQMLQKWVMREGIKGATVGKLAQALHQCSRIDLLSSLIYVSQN
As to the kind of experiment: Inhibitory activity of the compounds against RIPK1 enzyme (P33-ATP, MBP substrate). Format: biochemical. Particulars: 36 nM RIPK1, substrate MBP, 10 mM magnesium ion, P33-labeled ATP, 2 h room temperature; read-out: RIPK1 enzyme inhibitory activety IC50. The procedure: The compound to be tested was dissolved in DMSO, and diluted in 3.16 folds with DMSO to a series of gradient concentrations. Then, the solution was diluted with MOPS buffer pH 7.0 to the final concentration. The resultant working solution was mixed with 36 nM RIPK1 (final concentration) and the substrate MBP homogeneously. Thereafter, 10 mM magnesium ion and P^33 isotopically labeled ATP were added for the reaction. After the reaction was carried out at room temperature for 2 h, phosphoric acid was added to terminate the reaction. The final reaction system was tested using a liquid scintillation counter after treatment. The […] for the tested result and a positive control group were converted to activity percentage. The activity percentage was plotted against the final concentration of respective compound using a 4-parameter fitting to obtain the inhibitory IC50 of the compound against RIPK1 enzyme.

For the next experiment, the system named is U937 cells. The experiment is described as follows: Inhibitory activity against programmed necroptosis of U937 cells induced by TNF-α and Q-VD-Oph (CellTiter-Glo). In kind it is cell-based. The settings on record: Celltiter-Glo survival rate. The method, then: The U937 cell strain which was used in the following Testing Examples was derived from ATCC, No.: CRL-1593.2, batch No.: 63479999, culture medium: RPMI-1640+10% FBS.
The compound to be tested was dissolved in DMSO, and diluted with DMSO to a series of gradient concentrations. The U937 cells were inoculated in a 384-well plate at 5000/well. The compound at respective concentration was added to each of the wells, and was mixed with the cells homogeneously. Human TNF-α and Q-VD-Oph were added simultaneously to induce programmed necroptosis of the cells. The cells were placed in the incubator at 37° C. and 5% CO2 for further culture of 48 h. Celltiter-Glo reagent was used for detection. After adequate pyrolysis reaction, the chemiluminescence readout value was recorded by a microplate reader. The survival rate was calculated from the detection results using the equation as follows: SR (%)=(RLU compound−RLU blank)/(RLU high control−RLU blank)×100%. The survival rate was plotted against the final concentration of respective compound using a 4-parameter fitting to calculate the inhibitory C50 of the compound against programmed necroptosis of cells induced by TNF-α.
In general terms: ATP-based viability assays read luminescence as a measure of living cells.

[1] abbreviates: human TNF-α + Q-VD-Oph induced necroptosis, 48 h.

`COc1cc(N2CC3CC(C(=O)N4N=CCC4c4ccccc4)CC3C2)ncn1` (stereo not drawn) [Compound Z-12, (2-(6-methoxypyrimidin-4-yl)octahydrocyclopenta[c]pyrrol-5-yl)(5-phenyl-4,5-dihydro-1H-pyrazol-1-yl) ketone]: the IC50 on RIPK1 enzyme is 123 nM.
In the case of `N#Cc1cc(N2CC[C@H](C(=O)N3N=CC[C@H]3c3cncc(F)c3)C3(CC3)C2)ncn1` (single isomer, unassigned) [Compound Z-48-d], the IC50 is 50 nM at RIPK1 enzyme and 7 nM in the experiment with U937 cells (Homo sapiens, U-937, 48 h).
On the same counts, the results for `COc1nccc(N2CC3CC(C(=O)N4N=CCC4c4ccccc4)CC3C2)n1` (stereo not drawn) [Compound Z-13, (2-(2-methoxypyrimidin-4-yl)octahydrocyclopenta[c]pyrrol-5-yl)(5-phenyl-4,5-dihydro-1H-pyrazol-1-yl) ketone] are 63 nM and 146 nM.
For `N#Cc1cc(N2CC3CC(C(=O)N4N=CCC4c4cc(F)cc(F)c4)CC3C2)ncn1` (stereo not drawn) [Compound Z-11, 6-(5-(5-(3,5-difluorophenyl)-4,5-dihydro-1H-pyrazole-1-carbonyl)hexahydrocyclopenta[C]pyrrol-2(1H)-yl)pyrimidine-4-carbonitrile], in that order: 89 nM and 138 nM.
In the case of `N#Cc1cc(N2CCC(C(=O)N3N=CCC3c3cc(F)cc(F)c3)C3(CC3)C2)ncn1` (single isomer, unassigned) [Compound Z-25-2], the IC50 at RIPK1 enzyme is 42 nM; in the experiment on U937 cells (Homo sapiens, U-937, 48 h), 1 nM.
For `NC(=O)c1cc(N2CC3CC(C(=O)N4N=CCC4c4ccccc4)CC3C2)ncn1` (stereo not drawn) [Compound Z-10], in that order: 95 nM and 153 nM.
Regarding `NC(=O)c1cc(N2CCC(C(=O)N3N=CCC3c3cncc(F)c3)C3(CC3)C2)ncn1` (racemic) [Compound Z-49-1, 6-(8-(5-(5-fluoropyridin-3-yl)-4,5-dihydro-1H-pyrazole-1-carbonyl)-5-aza-spiro[2.5]oct-5-yl)pyrimidine-4-carboxamide], the IC50 with U937 cells (Homo sapiens, U-937, 48 h) stood at 279 nM.
Consider `N#Cc1ccnc(N2CC3CC(C(=O)N4N=CCC4c4cncc(F)c4)CC3C2)n1` (stereo not drawn) [Compound Z-31, 2-(5-(5-(5-fluoropyridin-3-yl)-4,5-dihydro-1H-pyrazole-1-carbonyl)hexahydrocyclopenta[c]pyrrol-2(1H)-yl)pyrimidine-4-carbonitrile], for which inhibition in the experiment with U937 cells (Homo sapiens, U-937, 48 h) was half-maximal at 408 nM (IC50).
Same read-out and setting: for `NC(=O)c1cc(N2CC3CC(C(=O)N4N=CCC4c4cc(F)ccc4F)CC3C2)ncn1` (stereo not drawn) [Compound Z-20, 6-(5-(5-(2,5-difluorophenyl)-4,5-dihydro-1H-pyrazole-1-carbonyl)hexahydrocyclopenta[c]pyrrol-2(1H)-yl)pyrimidine-4-carboxamide] the value was 272 nM; for `N#Cc1ccnc(N2CC3CC(C(=O)N4N=CCC4c4cc(F)ccc4F)CC3C2)n1` (stereo not drawn) [Compound Z-24, 2-(5-(5-(2,5-difluorophenyl)-4,5-dihydro-1H-pyrazole-1-carbonyl)hexahydrocyclopenta[c]pyrrol-2(1H)-yl)pyrimidine-4-carbonitrile], 181 nM; for `N#Cc1cc(N2CC[C@@H](C(=O)N3N=CC[C@@H]3c3cncc(F)c3)CC23CC3)ncn1` (single isomer, unassigned) [Compound Z-65-4], 14 nM.
As to `N#Cc1cc(N2CCC(C(=O)N3N=CCC3c3cncc(F)c3)C3(CC3)C2)ncn1` (racemic) [Compound Z-48-1, 6-(8-(5-(5-fluoropyridin-3-yl)-4,5-dihydro-1H-pyrazole-1-carbonyl)-5-aza-spiro[2.5]oct-5-yl)pyrimidine-4-carbonitrile], the IC50 with U937 cells (setting [1]) was 30 nM.
As to `N#Cc1cc(N2CCC(C(=O)N3N=CCC3c3cc(F)cc(F)c3)CC23CC3)ncn1` (stereo not drawn) [Compound Z-62, 6-(7-(5-(3,5-difluorophenyl)-4,5-dihydro-1H-pyrazole-1-carbonyl)-4-aza-spiro[2.5]oct-4-yl)pyrimidine-4-carbonitrile], the IC50 in the experiment on U937 cells (Homo sapiens, U-937, 48 h) was 7 nM.
Still for that read-out and setting: to `NC(=O)c1cc(N2CCC(C(=O)N3N=CCC3c3cc(F)cc(F)c3)CC23CC3)ncn1` (racemic) [Compound Z-64-a, 6-(7-(5-(3,5-difluorophenyl)-4,5-dihydro-1H-pyrazole-1-carbonyl)-4-aza-spiro[2.5]oct-4-yl)pyrimidine-4-carboxamide] belongs 10 nM.
Same read-out and setting: to `NC(=O)c1ccnc(N2CC3CC(C(=O)N4N=CCC4c4cncc(F)c4)CC3C2)n1` (racemic) [Compound Z-34, 2-(5-(5-(5-fluoropyridin-3-yl)-4,5-dihydro-1H-pyrazole-1-carbonyl)hexahydrocyclopenta[c]pyrrol-2(1H)-yl)pyrimidine-4-carboxamide] belongs 380 nM.
With `N#Cc1cc(N2CC3CCC(C2)C3C(=O)N2N=CCC2c2ccccc2)ncn1` (single isomer, unassigned) [Compound Z-3, 6-(8-(5-phenyl-4,5-dihydro-1H-pyrazole-1-carbonyl)-3-azabicyclo[3.2.1]oct-3-yl)pyrimidine-4-carbonitrile], the IC50 in the experiment with U937 cells (setting [1]) was 322 nM.
For `Nc1nc(N2CC3CC(C(=O)N4N=CCC4c4cc(F)cc(F)c4)CC3C2)ncc1F` (stereo not drawn) [Compound Z-23, (2-(4-amino-5-fluoropyrimidin-2-yl)octahydrocyclopenta[c]pyrrol-5-yl)(5-(3,5-difluorophenyl)-4,5-dihydro-1H-pyrazol-1-yl) ketone], the IC50 with U937 cells (Homo sapiens, U-937, 48 h) turned out to be 52 nM.
Turning to `Nc1nc(N2C[C@H]3C[C@@H](C(=O)N4N=CC[C@@H]4c4cc(F)cc(F)c4)C[C@H]3C2)ncc1F` (single isomer, unassigned) [Compound Z-23-4], the IC50 with U937 cells (setting [1]) was determined as 41 nM.
As for `Cc1nnc(N2CCC(C(=O)N3N=CCC3c3cncc(F)c3)C3(CC3)C2)o1` (stereo not drawn) [Compound Z-68, (5-(5-fluoropyridin-3-yl)-4,5-dihydro-1H-pyrazol-1-yl)(5-(5-methyl-1,3,4-oxadizol-2-yl)-5-aza-spiro[2.5]oct-8-yl) methanone], in the experiment on U937 cells (setting [1]), the IC50 came out at 364 nM.
On the same count and under the same terms, to `NC(=O)c1cc(N2CCC(C(=O)N3N=CCC3c3cc(F)cc(F)c3)CC23CC3)ncn1` (stereo not drawn) [Compound Z-66, 6-(7-(5-(3,5-difluorophenyl)-4,5-dihydro-1H-pyrazole-1-carbonyl)-4-aza-spiro[2.5]oct-4-yl)pyrimidine-4-carboxamide] belongs 20 nM; to `Nc1nc(N2C[C@H]3C[C@@H](C(=O)N4N=CC[C@@H]4c4ccccc4)C[C@H]3C2)ncc1F` (single isomer, unassigned) [Compound Z-39-4], 88 nM.
As for `NC(=O)c1ccnc(N2C[C@@H]3CC(C(=O)N4N=CC[C@@H]4c4cc(F)cc(F)c4)C[C@H]3C2)n1` (single isomer, unassigned) [Compound Z-18-4], in the experiment with U937 cells (setting [1]), the IC50 is 62 nM.
With `N#Cc1cc(N2CCC(C(=O)N3N=CCC3c3ccccc3)C3(CC3)C2)ncn1` (racemic) [Compound Z-60-2, 6-(8-(5-phenyl-4,5-dihydro-1H-pyrazole-1-carbonyl)-5-aza-spiro[2.5]oct-5-yl)pyrimidine-4-carbonitrile], it took 7 nM to reach half-maximal inhibition in the experiment with U937 cells (Homo sapiens, U-937, 48 h) (IC50).
With `Cc1nnc(N2CCC(C(=O)N3N=CCC3c3cc(F)cc(F)c3)C3(CC3)C2)o1` (stereo not drawn) [Compound Z-61, (5-(3,5-difluorophenyl)-4,5-dihydro-1H-pyrazol-1-yl)(5-(5-methyl-1,3,4-oxadizol-2-yl)-5-aza-spiro[2.5]octane-8-yl) ketone], the IC50 in the experiment on U937 cells (setting [1]) is 53 nM.
Turning to `N#Cc1ccnc(N2CC3CC(C(=O)N4N=CCC4c4cc(F)cc(F)c4)CC3C2)n1` (stereo not drawn) [Compound Z-32, 2-(5-(5-(3,5-difluorophenyl)-4,5-dihydro-1H-pyrazole-1-carbonyl)hexahydrocyclopenta [c]pyrrol-2(1H)-yl)pyrimidine-4-carbonitrile], in the experiment on U937 cells (Homo sapiens, U-937, 48 h), the IC50 was 60 nM.
